Data taken from patent US9353090B2, “Heterocyclic carboxylic acids as activators of soluble guanylate cyclase” (Boehringer Ingelheim International GmbH, priority 2014, dated 2016).
pEC50: −log10 of the molar value. In brackets after ≈: the same amount, converted by molar mass.

Columns and labels:
[1] = Human liver microsome (HLM) metabolic stability assay; type: in vitro ADME; details: human liver microsomes
Protocol: The 5 time point, high-throughput human liver microsome (HLM) metabolic stability assay is designed to determine in vitro compound metabolism. Compounds are incubated with HLMs at a concentration of 1 uM, at 37° C., for a total of 60 min. The percent of compound remaining at 5, 15, 30, and 60 min is used to calculate the t1/2 (min), CLint (mL/min/kg), CLh (mL/min/kg), and % Qh. The assay is based on a 96-well format and can accommodate up to 92 compounds per plate (n=1).
Using the 96-well multi-channel head, the Biomek FX, equipped with a Peltier heating block/shaker, is programmed to accomplish the following steps: • 1. Pipette 175 uL of 1.15 mg/mL microsomes into each of the 96 conical inserts (Analytical Sales and Products, catalog number 96PL05) that fit into the plate of the Peltier heating block/shaker (the incubation plate) • 2. Add 5 uL of compounds from the assay plate to the microsomes and shake the mixture at 600 rpm at 42.1° C. for 10 min (a setting of 42.1° C. on the Peltier is required for the samples to incubate at 37° C.) • 3. After 10 min, prompt the user to add the NADPH plate to the deck and add 20 uL from the NADPH plate to the incubation plate to start the reaction • 4. Add 215 uL of 100%, cold acetonitrile containing an internal standard(s) to a 0 minute, 5 minute, 15 minute, 30 minute, and 60 minute “quench” plate • 5. At 0 min, 5 min, 15 min, 30 min, and 60 min into the incubation, aspirate 12 uL from the incubation mixture and add it to the quench solution to stop the reaction • 6. Add 185 uL HPLC grade water to each well of the 0, 5, 15, 30 and 60 minute quench plates to dilute compounds to the appropriate concentration for the mass spectrometer
After all time points are collected, the quench plates are sealed with 96-well pierceable plate mats or heat sealing foil and centrifuged at 3000 rpm for 15 min to pellet the microsomes.
The plates are analyzed using LC/MS/MS with electron spray ionization (ESI) and the previously determined MRM transitions. The LC method includes the following parameters:
Using an Excel template in Activitybase, the peak areas corresponding to 5, 15, 30 and 60 min are compared to the peak area at 0 min to calculate the percent of remaining compound using the following equation:
Percent compound remaining=(AUC at Time t min/AUC at Time 0 min)×100 where t=0, 5, 15, 30 or 60 min.
Time (min) is plotted against the natural logarithm (Ln) of the percent compound remaining to determine the slope. The slope is used to calculate t1/2 (min) using the equation, t1/2=0.693/slope.
Clh, Hepatic clearance • Hepatic flow*f(u)*Clint/(hepatic flow+f(u)*Clint)
Qh, % Hepatic blood flow • (Clh/Hepatic flow)*100
Preferred compounds have % Qh values of less than 24.

[2] = biological target: human soluble guanylate cyclase alpha 1 and beta 1 subunits (sGC) (Homo sapiens (Human), UniProt Q02108+Q02153); test: sGC cellular activator assay (cGMP, HTRF), in the presence and absence of 50% human serum; type: cell-based; details: CHO cells stably expressing human sGC alpha 1/beta 1, preincubated with 40 microM ODQ; cGMP by HTRF; Table 2 does not state whether with or without 50% human serum
Chain of human soluble guanylate cyclase alpha 1 and beta 1 subunits (sGC) (Q02108 whole entry partner): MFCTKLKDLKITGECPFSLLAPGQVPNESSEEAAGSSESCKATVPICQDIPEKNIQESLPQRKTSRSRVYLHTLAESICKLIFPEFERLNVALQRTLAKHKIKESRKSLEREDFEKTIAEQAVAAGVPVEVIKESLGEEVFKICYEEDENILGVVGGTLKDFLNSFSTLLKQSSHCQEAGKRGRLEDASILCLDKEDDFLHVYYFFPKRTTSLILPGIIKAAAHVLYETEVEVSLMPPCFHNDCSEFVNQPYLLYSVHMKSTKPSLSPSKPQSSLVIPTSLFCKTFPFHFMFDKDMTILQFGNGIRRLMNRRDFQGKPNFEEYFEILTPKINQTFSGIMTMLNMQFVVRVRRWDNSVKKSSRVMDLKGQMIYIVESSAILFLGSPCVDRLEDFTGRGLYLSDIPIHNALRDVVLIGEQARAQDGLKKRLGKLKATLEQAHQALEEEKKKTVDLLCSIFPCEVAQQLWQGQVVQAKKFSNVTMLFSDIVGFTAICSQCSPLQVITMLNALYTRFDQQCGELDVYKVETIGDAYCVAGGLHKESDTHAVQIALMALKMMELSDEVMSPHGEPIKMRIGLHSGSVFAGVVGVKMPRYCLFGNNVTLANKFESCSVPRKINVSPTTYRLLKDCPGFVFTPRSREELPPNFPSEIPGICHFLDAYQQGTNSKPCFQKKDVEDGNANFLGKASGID
Chain of human soluble guanylate cyclase alpha 1 and beta 1 subunits (sGC) (Q02153 whole entry): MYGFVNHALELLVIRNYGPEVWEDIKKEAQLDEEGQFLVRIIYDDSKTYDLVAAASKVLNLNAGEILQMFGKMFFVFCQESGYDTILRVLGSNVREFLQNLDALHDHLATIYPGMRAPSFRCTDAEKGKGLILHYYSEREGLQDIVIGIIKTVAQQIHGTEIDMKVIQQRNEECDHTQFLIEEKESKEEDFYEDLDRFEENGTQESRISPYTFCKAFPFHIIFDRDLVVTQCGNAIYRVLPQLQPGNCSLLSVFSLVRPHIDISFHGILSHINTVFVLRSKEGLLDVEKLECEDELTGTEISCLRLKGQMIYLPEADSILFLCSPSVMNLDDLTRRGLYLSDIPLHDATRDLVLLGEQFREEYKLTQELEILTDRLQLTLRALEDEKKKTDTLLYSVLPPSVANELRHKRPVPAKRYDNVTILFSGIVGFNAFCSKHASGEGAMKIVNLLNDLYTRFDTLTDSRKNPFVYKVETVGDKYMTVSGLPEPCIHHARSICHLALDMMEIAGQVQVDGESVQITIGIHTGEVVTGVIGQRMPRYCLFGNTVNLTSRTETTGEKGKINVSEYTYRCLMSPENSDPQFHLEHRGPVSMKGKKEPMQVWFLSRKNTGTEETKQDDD
Protocol: The sGC cellular activator assay is performed in the presence and absence of 50% human serum (HS) using Chinese hamster ovary cells that have been stably transfected to express the human soluble guanylate cyclase alpha 1 and beta 1 subunits (sGC). Cells are preincubated with 40 microM 1H-[1,2,4]oxadiazolo[4,3-a]quinoxalin-1-one (ODQ), an sGC inhibitor, for one h in buffer containing 0.1% bovine serum albumin and 3-isobutyl-1-methylxanthine (IBMX). Concentration response curves are prepared for test compounds in DMSO. An intermediate dilution of the compounds is performed in either buffer containing IBMX or type AB HS containing IBMX. Diluted compounds are added to cells and they are incubated at room temperature for thirty min. cGMP is measured using a CisBio homogeneous time resolved fluorescence kit and the EC50 is calculated for each compound.
Representative compounds of the present invention were tested for activity the above assay. Preferred compounds have an EC50 of <1,000 nM in the above assay and more preferred compounds have an EC50<200 nM.

physchem = details: kinetic from dmso stock
[3] = pH 2.2, aqueous buffer, Solubility (pH 2.2)
[4] = pH 4.5, aqueous buffer, Solubility (pH 4.5)
[5] = pH 6.8, aqueous buffer, Solubility (pH 6.8)

With Cc1cc(COc2ccccc2-c2cccc(N3CC[C@@]4(C(=O)O)C[C@H]4C3)n2)cc2c1CN(C1CCOCC1)CC2 [Compound 12] the “Metabolic stability (Qh %), % hepatic blood flow” value (from here on “Metabolic stability (Qh %)”) [1] was less than 24%, the pEC50 [2] was 7.92 and the solubility at 24 h (physchem; [3]) was 110 µg/mL (≈ 199 µM). It also gave a solubility at 24 h (physchem; [4]) of 90 µg/mL (≈ 163 µM) and a solubility at 24 h (physchem; [5]) of 33 µg/mL (≈ 59.6 µM).
In the case of Cc1cccc(-c2cccc(N3CC[C@@]4(C(=O)O)C[C@H]4C3)n2)c1OCc1ccc2c(c1)CCN(C1CCOCC1)C2 [Compound 13], the “Metabolic stability (Qh %)” value [1] was 42%, the pEC50 [2] was 8.22 and the solubility at 24 h (physchem; [3]) was 140 µg/mL (≈ 253 µM). For the same molecule, the solubility at 24 h (physchem; [4]) was 120 µg/mL (≈ 217 µM) and the solubility at 24 h (physchem; [5]) was 71 µg/mL (≈ 128 µM).
With Cc1cccc(-c2cccc(N3CC[C@@]4(C(=O)O)C[C@H]4C3)n2)c1OCc1ccc2c(c1C)CCN(C1CCOCC1)C2 [Compound 14] the “Metabolic stability (Qh %)” value [1] was 61%, the pEC50 [2] was 8.52 and the solubility at 24 h (physchem; [3]) was 120 µg/mL (≈ 211 µM). The solubility at 24 h (physchem; [4]) was 94 µg/mL (≈ 166 µM) and the solubility at 24 h (physchem; [5]) was 53 µg/mL (≈ 93.4 µM).
For Cc1cc(COc2c(C)cccc2-c2cccc(N3CC[C@@]4(C(=O)O)C[C@H]4C3)n2)cc2c1CN(C1CCOCC1)CC2 [Compound 15], the “Metabolic stability (Qh %)” value [1] was 51%, the pEC50 [2] was 8.70 and the solubility at 24 h (physchem; [3]) was 110 µg/mL (≈ 194 µM). The solubility at 24 h (physchem; [4]) was 90 µg/mL (≈ 159 µM) and the solubility at 24 h (physchem; [5]) was 51 µg/mL (≈ 89.8 µM).
For Cc1ccc(OCc2ccc3c(c2)CCN(C2CCOCC2)C3)c(-c2cccc(N3CC[C@@]4(C(=O)O)C[C@H]4C3)n2)c1 [Compound 16], the “Metabolic stability (Qh %)” value [1] was 28%, the pEC50 [2] was 8.10 and the solubility at 24 h (physchem; [3]) was 130 µg/mL (≈ 235 µM). It also gave a solubility at 24 h (physchem; [4]) of 96 µg/mL (≈ 173 µM) and a solubility at 24 h (physchem; [5]) of 41 µg/mL (≈ 74 µM).
With Cc1ccc(OCc2ccc3c(c2)CCN(C2COC2)C3)c(-c2cccc(N3CC[C@@]4(C(=O)O)C[C@H]4C3)n2)c1 [Compound 17] the “Metabolic stability (Qh %)” value [1] was 33%, the pEC50 [2] was 7.66 and the solubility at 24 h (physchem; [3]) was 100 µg/mL (≈ 190 µM). It also gave a solubility at 24 h (physchem; [4]) of 83 µg/mL (≈ 158 µM) and a solubility at 24 h (physchem; [5]) of 39 µg/mL (≈ 74.2 µM).
In the case of Cc1ccc(OCc2ccc3c(c2C)CCN(C2CCOCC2)C3)c(-c2cccc(N3CC[C@@]4(C(=O)O)C[C@H]4C3)n2)c1 [Compound 18], the “Metabolic stability (Qh %)” value [1] was 34%, the pEC50 [2] was 8.70 and the solubility at 24 h (physchem; [3]) was 130 µg/mL (≈ 229 µM). For the same molecule, the solubility at 24 h (physchem; [4]) was 99 µg/mL (≈ 174 µM) and the solubility at 24 h (physchem; [5]) was 38 µg/mL (≈ 66.9 µM).
In the case of Cc1ccc(OCc2ccc3c(c2C)CCN(C2COC2)C3)c(-c2cccc(N3CC[C@@]4(C(=O)O)C[C@H]4C3)n2)c1 [Compound 19], the “Metabolic stability (Qh %)” value [1] was 63%, the pEC50 [2] was 8.10 and the solubility at 24 h (physchem; [3]) was 110 µg/mL (≈ 204 µM). For the same molecule, the solubility at 24 h (physchem; [4]) was 82 µg/mL (≈ 152 µM) and the solubility at 24 h (physchem; [5]) was 32 µg/mL (≈ 59.3 µM).
In the case of Cc1cccc(-c2cccc(N3C[C@@H]4C[C@]4(C(=O)O)C3)n2)c1OCc1ccc2c(c1)CCN(C1CCOCC1)C2 [Compound 20], the “Metabolic stability (Qh %)” value [1] was less than 24%, the pEC50 [2] was 7.68 and the solubility at 24 h (physchem; [3]) was 110 µg/mL (≈ 204 µM). It also gave a solubility at 24 h (physchem; [4]) of 96 µg/mL (≈ 178 µM) and a solubility at 24 h (physchem; [5]) of 64 µg/mL (≈ 119 µM).
With Cc1cccc(-c2cccc(N3C[C@@H]4C[C@]4(C(=O)O)C3)n2)c1OCc1ccc2c(c1C)CCN(C1CCOCC1)C2 [Compound 21] the “Metabolic stability (Qh %)” value [1] was less than 24%, the pEC50 [2] was 7.96 and the solubility at 24 h (physchem; [3]) was 120 µg/mL (≈ 217 µM). It also gave a solubility at 24 h (physchem; [4]) of 110 µg/mL (≈ 199 µM) and a solubility at 24 h (physchem; [5]) of 70 µg/mL (≈ 126 µM).
With Cc1cc(COc2c(C)cccc2-c2cccc(N3C[C@@H]4C[C@]4(C(=O)O)C3)n2)cc2c1CN(C1CCOCC1)CC2 [Compound 22] the “Metabolic stability (Qh %)” value [1] was less than 24%, the pEC50 [2] was 8.22 and the solubility at 24 h (physchem; [3]) was 110 µg/mL (≈ 199 µM). It also gave a solubility at 24 h (physchem; [4]) of 90 µg/mL (≈ 163 µM) and a solubility at 24 h (physchem; [5]) of 60 µg/mL (≈ 108 µM).
With Cc1cc(COc2c(C)cccc2-c2cccc(N3C[C@@H]4C[C@]4(C(=O)O)C3)n2)cc2c1CN(C1COC1)CC2 [Compound 23] the “Metabolic stability (Qh %)” value [1] was less than 24%, the pEC50 [2] was 8.22 and the solubility at 24 h (physchem; [3]) was 100 µg/mL (≈ 190 µM). It also gave a solubility at 24 h (physchem; [4]) of 88 µg/mL (≈ 167 µM) and a solubility at 24 h (physchem; [5]) of 69 µg/mL (≈ 131 µM).
In the case of Cc1cc(COc2c(C)cccc2-c2cccc(N3C[C@@H]4C[C@]4(C(=O)O)C3)n2)cc2c1CN(C1CCOC1)CC2 (some centres unmarked) [Compound 24], the “Metabolic stability (Qh %)” value [1] was less than 24%, the pEC50 [2] was 8.22 and the solubility at 24 h (physchem; [3]) was 110 µg/mL (≈ 204 µM). For the same molecule, the solubility at 24 h (physchem; [4]) was 98 µg/mL (≈ 182 µM) and the solubility at 24 h (physchem; [5]) was 69 µg/mL (≈ 128 µM).
